From patent US20230105693A1, “ANTIMICROBIAL COMPOSITIONS” (Firmenich SA, priority 2020, published 2023) come the findings set out here.

The subject of data set [1] is Escherichia coli ATCC 10536. The data set is described as follows: Robotic BCT test of perfume ingredients in model surfactant bases. The format is cell-based. The settings on record: for log reduction at 0.5 %: Escherichia coli, ATCC10536, 45 s. On the procedure:
The surfactant bases tested included 1) sodium lauryl ether sulfate (SLES) and cocamidopropyl betaine (CAPB) at 3:1 mass ratios; 2) SLES, CAPB and coco-glucoside at 2:1:1 mass ratios. Test samples were prepared by mixing perfume ingredients with the surfactant bases and vigorously stirred for 24 hrs. Concentration of perfume ingredients in the bases was 0.5% wt. Samples with transparent appearance were selected for antimicrobial testing.
Antimicrobial efficacy was tested against a representative Gram-negative bacterial strain, Escherichia coli ATCC 10536, using robotic bacteria contact time (BCT) test based on European standard EN-1276 and EP2787827(B1).
Preparation of screening plate and dilution plate: Aliquots (270 µl) of compositions were dispensed into the wells of a 96-well microtiter plate (MTP) along two columns (B1-H1, and B7-H7), and 270 µl of MilliQ water was added to well A1 and A7 as the control samples. This MTP was labelled as the “Screening plate”. In another MTP, labelled as the “Dilution plate”, 270 µL of Dey-Engley (D/E) neutralizing solution was added to column 1 and column 7. 270 µl of tryptone diluent solution was added to columns 2-6 and columns 8-12 of the Dilution MTP by a Hamilton robotic liquid handling station.
BCT test & neutralization & dilution: Bacterial stock (30 µl) was then added to columns 1 of the ‘Screening plate’ and mixed by a Hamilton robotic liquid handling station. After a contact time of 45 seconds, 30 µl of the mixtures in column 1 were transferred into the corresponding wells of column 1 of the ‘Dilution plate’. After neutralizing for 5 minutes in the D/E neutralizing solution, 30 µl of the neutralized mixtures were transferred from column 1 to column 2 of the Dilution MTP and mixed, followed by transferring 30 µl of the mixtures from column 2 into column 3. This process was repeated serially diluting the bacteria suspensions across the plate to column 6. Bacterial stock (30 µl) was then added to columns 7 of the ‘Screening plate’ and mixed by a Hamilton robotic liquid handling station. After a contact time of 45 seconds, 30 µl of the mixtures in column 7 were transferred into the corresponding wells of column 7 of the ‘Dilution plate’. After neutralizing for 5 minutes in the D/E neutralizing solution, 30 µl of the mixtures were transferred from column 7 to column 8 of the Dilution MTP and mixed, followed by transferring further 30 µl mixtures from column 8 into column 9. This process was repeated serially diluting the bacteria suspensions across the plate to column 12.
Plating: 30 µl volumes from each well in the Dilution MTP were transferred onto four Tryptone Soya Agar (TSA) plates. The TSA plates were allowed to stand for about two hours so that the 30 µl inocula spots could dry and the plates were then inverted and incubated overnight at 37° C. for 24 hours. After incubation, colonies were counted.
Calculating log reduction: Select the dilutions with colony counts, and calculate the viable cell counts (CFU/mL) of mixture in ‘Screening plate’, and log reduction against the control MilliQ sample was calculated.

Data set [2] in a line: physchem. The format is physicochemical. The procedure:
The partition coefficient (P) is defined as the ratio of the concentrations (C) to the equilibrium of a dissolved and highly diluted substance in a biphasic system consisting of two almost immiscible solvents.
In the case of n-octanol and water:
The partition coefficient P is the quotient of two concentrations, it is generally indicated in its logarithmic form, base 10 (LogP).
The log P values of different perfume ingredients were measured using standard high performance liquid chromatography method, according to the reference (OECD, guideline No. 117, adopted on 13 Apr. 2004, Partition coefficient (n-octanol-water), High Performance Liquid Chromatography (HPLC) Method).

A short description of data set [3]: Equivalent alkane carbon number (EACN) in model microemulsion system. The conditions noted are these: C10E5/water/isopropyl myristate model system, 3% wt perfume ingredient. Format: physicochemical. The procedure:
EACN values provide information on polarity and surface activity of apolar ingredients. Tchakalova and Fieber (J. of Surfactants and Detergents, 2012, 15(2):167-177) classified perfume ingredients based on values of EACNmix, the EACN of a mixture consisting of a test perfume ingredient and a reference oil (isopropyl myristate). The same model system and method were used to measure the EACN values of perfume ingredients with antimicrobial activities. Different perfume ingredients were added to the model microemulsion system shown in Table 1, in which the nonionic pentaethylene glycol mono n-decyl ether (C10E5) was used as surfactant. Phase transition temperatures of the system from Winsor I to Winsor III, and from Winsor III to Winsor II were determined using a water bath. Alkanes with different alkane carbon numbers (octane, decane, dodecane and hexadecane) were used to establish a linear correlation curve between EACN and the PIT, which is the average of the transitions from Winsor I to Winsor III, and from Winsor III to Winsor II, respectively. EACNmix was then calculated based on the linear relationship and the measured PIT for systems containing different perfume ingredients. The EACN of the pure perfume ingredient was calculated based on the molar ratio of the tested PRMs in the oil phase using following equation: […]
wherein n and nref are the molar fractions of tested perfume ingredient and the reference ingredient (i.e., isopropyl myristate) in the oil phase, respectively.

Data set [4] deals with E. coli ATCC 10536. Nature of the data set: Bacterial contact time (BCT) test of perfume ingredients in 20% ethanol solution (EN-1276 based). Format: cell-based, Escherichia coli. The settings on record: 20% EtOH, 45 s. On the procedure: Bacterial suspensions of E. coli ATCC 10536 were prepared for antimicrobial testing as follows. Stock cultures stored at -80° C. were sub-cultured onto Tryptic Soy Agar (TSA) plate, and incubated at 37° C. for 24 h to obtain single colonies. Single colonies of the primary cultures were streaked onto TSA plates and incubated at 37° C. for 24 h to prepare the secondary cultures. Single colonies of secondary cultures were inoculated into 50 mL of Tryptic Soy broth (TSB), incubated at 37° C. 180 rpm for 18 h. Aliquots (0.5 ml) of the 18 h culture were inoculated into 50 ml of fresh TSB, and incubated at 37° C. 180 rpm for 2- 3 hours. When the OD600 nm value of the broth reached 1-2, cells were harvested by centrifugation at 5,000 rpm for 10 min, and then resuspended in the same fresh broth media to achieve the target level of 1-5 × 10^8 colony forming unit (CFU)/mL. This suspension was used for further antimicrobial tests.
Unless indicated otherwise, log reduction testing according to the present invention is determined in accordance with the following method.
Bacterial contact time (BCT) test based on European standard EN-1276 was used to determine dose dependent bactericidal activity of perfume ingredients in 20% ethanol solutions.
Perfume ingredients of various concentrations (doses) were prepared in 40% ethanol solutions. Eleven replicates of each sample were added into 96-well microtiter plates (120 µl per well) in column 1-11 of one row, with row B as the control sample of the ethanol solution. Then, 120 µl of cell suspension at a concentration of approximately 1-5 × 10^8 CFU/ML (as prepared above) were added to each well of the microtiter plate. A specified contact time (45 s) was allowed for target bacterial strains. At the end of the contact time, serial dilutions were prepared in 96 well plates with growth media: 3 times of 1 in 10 dilutions and followed by 17 times of 1 in 2 dilutions. Each plate was sealed and incubated at 37° C. under agitation (180 rpm). After incubation, turbidity of the wells (OD 600 nm) was recorded by Tecan microplate reader. Turbid cells were regarded as positive growth of viable cells. The total number of viable cells (log CFU/mL) for each sample was calculated. And the log reduction for each test composition at the final concentration (dose) was calculated against the control sample of the 20% ethanol solution.
Table 20 show the bactericidal dose related effect (log reduction) and calculated effect fraction of the Mixture C and compositions against E. coli ATCC 10536. Stock of compositions were prepared in 100% ethanol, then diluted in MilliQ water to obtain 2 × final concentration in 40% ethanol. BCT tests were conducted on samples against E. coli for a contact time of 45 s.

The mark [5] stands for this setting: n-octanol/water, HPLC method, read-out: Log P.
Where [6] appears, read: 0.5% perfume ingredient, Base 1: SLES 1.875%, CAPB 0.625%, contact 45 s, read-out: Log reduction in Base 1 (Log CFU/mL).
The mark [7] stands for this setting: model base 1, table by functional group, read-out: Log reduction in Base 1 (Log CFU/mL).

Read-outs that look alike come from different tables or passages of the source.

Regarding `c1ccc2[nH]ccc2c1` [indole], the log reduction at 0.5 % in data set [1] (read-out: Log reduction in Base 1 (Log CFU/mL)) amounted to 1.9. In addition, in data set [2] (setting [5]), the chromatographic logP came to 1.74. In data set [3], the EACN is reported as <-24.93.

In the case of `COC(=O)c1ccccc1N` [methyl 2-aminobenzoate], the chromatographic logP in data set [2] (setting [5]) is 1.83. Besides, in data set [3], the EACN is given as -22.57.

Take `CCCc1cccc(O)c1` [3-propylphenol]: the log reduction at 0.5 % in data set [1] (setting [6]) and in data set [1] (setting [7]) was > 5.5 each time. Besides, in data set [2] (setting [5]), the chromatographic logP was 2.1. In addition, in data set [3], the EACN is <-29.09.

As for `CC(C)(O)Cc1ccccc1` [2-methyl-1-phenyl-2-propanol], the log reduction at 0.5 % in data set [1] (setting [6]) is -0.1. Further, the chromatographic logP in data set [2] (setting [5]) stood at 1.84. The EACN in data set [3] is -17.89.

In the case of `O=C/C=C/c1ccccc1` [(E)-3-Phenyl-2-propenal], the figures for the log reduction at 0.5 % in data set [1] (setting [6]) and in data set [1] (setting [7]) were > 3 and 5.1, respectively. This compound also came in with a chromatographic logP in data set [2] of 1.5. In addition, in data set [3], the EACN is given as -13.35.

With `CC1=C(C=O)C(C)(C)CC=C1` [2,6,6-trimethyl-1,3-cyclohexadiene-1-carbaldehyde], in data set [2] (setting [5]), the chromatographic logP turned out to be 2.57. In addition, the EACN in data set [3] is -6.62.

As to `CCCCCC1CCC(=O)O1` (racemic) [(+-)-4-nonanolide], in data set [2] (setting [5]), the chromatographic logP is 2.45. Moreover, the EACN in data set [3] is -11.24.

On to `CCOC(=O)/C=C/c1ccccc1` [Ethyl(E)-3-phenyl-2-propenoate], for which the “Log reduction (Log CFU/mL) Base 3” value in data set [1] (0.5% perfume ingredient, Base 3: SLES 1.5%, CAPB 0.75%, coco-glucoside 0.75%, contact 45 s) is “Insoluble”. Moreover, in data set [1] (0.5% perfume ingredient, Base 4: SLES 2.25%, CAPB 0.75%, sodium xylene sulfonate 3%, contact 45 s), the “Log reduction (Log CFU/mL) Base 4” value is listed as “Insoluble”. For the same compound, the log reduction at 0.5 % in data set [1] (setting [6]) came out at 1.9 ± 1; in data set [1] (0.5% perfume ingredient, Base 2: SLES 2.25%, CAPB 0.75%, contact 45 s, read-out: Log reduction (Log CFU/mL) Base 2) it was 0. The chromatographic logP in data set [2] (setting [5]) amounted to 3.

Take `C/C(=C\c1ccc(C)cc1)CO` [(2E)-2-methyl-3-(4-methylphenyl)-2-propen-1-ol]: the chromatographic logP in data set [2] (setting [5]) came out at 2.29. For the same compound, the EACN in data set [3] is reported as -36.15.

In general, Log P refers to the decadic logarithm of the partition coefficient of the neutral form, usually between octanol and water. For `C=C/C(C)=C\CC1OC1(C)C` (racemic) [(+-)-(2,2-dimethyl-3-[(2Z)-3-methyl-2,4-pentadien-1-yl]oxirane OR (+-)-(2,2-dimethyl-3-[(2E)-3-methyl-2,4-pentadien-1-yl]oxirane], the “Log P” value in data set [2] came out at 2.92. Besides, the EACN in data set [3] is given as -1.45.

In the case of `CCCCC(CC)CO` (stereo not drawn) [2-ethyl-1-hexanol], the Effect fraction is reported as 0.050 in data set [4] (dose 0.060% w/v); 0.100 in data set [4] (dose 0.065% w/v); 0.290 in data set [4] (dose 0.070% w/v); 0.510 in data set [4] (dose 0.075% w/v); 0.800 in data set [4] (dose 0.080% w/v). The Log reduction in data set [4] (dose 0.060% w/v) came to 0.367; in data set [4] (dose 0.065% w/v) it was 0.728; in data set [4] (dose 0.070% w/v), 2.052; in data set [4] (dose 0.075% w/v), 3.678; in data set [4] (dose 0.080% w/v) it was 5.760. The log reduction at 0.5 % in data set [1] (setting [6]) and in data set [1] (setting [7]) was 3.6 throughout. Also, in data set [3], the EACN is on record as -22.63.

On to `CC/C=C\CCCCCO` [(Z)-6-nonen-1-ol], for which the “Log P” value in data set [2] came to 3.4. Moreover, in data set [3], the EACN is -29.91.

Regarding `CCC/C=C/COC(C)=O` [(E)-2-hexenyl acetate], the chromatographic logP in data set [2] (setting [5]) was found to be 2.59. For the same compound, the EACN in data set [3] came to 1.12.

As for `O=C1CCC[C@H]2[C@@H]1[C@H]1C=C[C@@H]2C1` (racemic) [(1RS,2SR,7RS,8SR)-tricyclo[6.2.1.0^~2,7^~]undec-9-en-3-one OR (1RS,2RS,7S,8SR)-tricyclo[6.2.1.0^~2, 7^~] undec-9-en-3-one], the “Log P” value in data set [2] is on record as 2.53. For the same compound, the EACN in data set [3] is reported as -5.81.

Consider `CCCc1ccc(O)c(OC)c1` [2-methoxy-4-propyl phenol], for which, in data set [2] (setting [5]), the chromatographic logP is 2.39. The EACN in data set [3] is -34.16.

For the compound `CC1=CC[C@H]([C@H](C)CCO)CC1` (single isomer, unassigned), the “Log P” value in data set [2] was determined as 3.46. The EACN in data set [3] is given as -34.57.

As to `N#C/C=C/c1ccccc1` [(E)-3-phenyl-2-propenenitrile], in data set [2] (setting [5]), the chromatographic logP turned out to be 1.98. Further, the EACN in data set [3] was -14.36.
